SMILES strings stand for the structures.

This note sets out measurements from US20240116933A1, “INDAZOLE AND PYRAZOLOPYRIDINE COMPOUNDS AS INHIBITORS OF NLRP3 INFLAMMASOME” (BioAge Labs, Inc., priority 2022, published 2024).

This test deals with T1, NLRP3 inflammasome (Homo sapiens, UniProt Q96P20).
T1 construct: endogenous in cells; host or cells: THP-1 cells (PMA-differentiated, LPS-primed, nigericin-stimulated)
T1 sequence (Q96P20 whole entry): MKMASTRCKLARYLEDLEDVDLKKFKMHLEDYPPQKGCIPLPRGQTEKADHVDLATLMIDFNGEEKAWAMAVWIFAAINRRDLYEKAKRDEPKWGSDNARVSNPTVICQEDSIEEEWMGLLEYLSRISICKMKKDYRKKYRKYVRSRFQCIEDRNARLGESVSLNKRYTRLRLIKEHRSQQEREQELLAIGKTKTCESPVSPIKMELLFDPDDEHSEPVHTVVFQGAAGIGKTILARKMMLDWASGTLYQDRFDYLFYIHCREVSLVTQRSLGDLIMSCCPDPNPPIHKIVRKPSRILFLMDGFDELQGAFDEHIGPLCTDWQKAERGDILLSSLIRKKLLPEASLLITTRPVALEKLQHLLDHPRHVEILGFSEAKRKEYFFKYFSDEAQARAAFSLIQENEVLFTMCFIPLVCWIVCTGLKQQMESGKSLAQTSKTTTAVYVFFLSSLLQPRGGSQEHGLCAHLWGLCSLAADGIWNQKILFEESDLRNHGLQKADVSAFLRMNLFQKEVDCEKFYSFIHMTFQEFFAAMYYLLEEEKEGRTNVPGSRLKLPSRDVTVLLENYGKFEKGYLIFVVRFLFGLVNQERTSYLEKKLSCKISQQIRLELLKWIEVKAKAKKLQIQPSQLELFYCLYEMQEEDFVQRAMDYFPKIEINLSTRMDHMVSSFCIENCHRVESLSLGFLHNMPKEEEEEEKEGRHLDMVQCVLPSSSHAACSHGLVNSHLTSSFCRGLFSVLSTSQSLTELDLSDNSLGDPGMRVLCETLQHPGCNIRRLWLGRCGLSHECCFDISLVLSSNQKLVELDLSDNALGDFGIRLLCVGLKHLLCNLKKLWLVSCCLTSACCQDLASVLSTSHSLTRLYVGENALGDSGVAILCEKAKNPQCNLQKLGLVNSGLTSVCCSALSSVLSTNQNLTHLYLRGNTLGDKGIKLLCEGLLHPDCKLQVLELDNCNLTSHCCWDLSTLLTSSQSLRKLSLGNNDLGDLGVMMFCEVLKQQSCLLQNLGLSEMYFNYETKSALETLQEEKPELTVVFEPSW
As to the kind of experiment: THP-1 Cell-Based NLRP3 Activation Assay. To be noted: THP-1 cells, PMA, 100 ng/mL LPS 3 hrs, 30 min pre-incubation with test compound, 10 μM nigericin 1 hr. As for the experimental part:
THP-1 cells are cultured in complete media (CM) until they reach logarithmic growth and achieve a viability >90%. CM is composed of RPMI-1640 (+Glutamax)/10% fetal bovine serum/55 μM β-mercaptoethanol/pen/strep. Cells are spun down and resuspended to 1,000,000 cells/mL in CM containing either 20 nM or 500 nM PMA. 150,000 cells […] are then added to each well of a 96-well TC plate and incubated for either 24 hr or 3 hr, respectively, in a standard cell culture incubator (37° C.; 5% CO2). After this incubation, the plate is tilted and media carefully removed. 200 μL of CM containing 100 ng/mL LPS is then added to the wells and the cells incubated an additional 3 hrs. The media is again removed and replaced with Opti-Mem medium containing pre-determined dilutions of test compounds in replicate wells. After a 30 min pre-incubation with test compound, 10 μM nigericin (final concentration) in Opti-Mem medium with the corresponding concentration of compound is added to the wells for an additional 1 hr. Positive control wells contain 10 μM nigericin in Opti-Mem in the absence of test compound, while negative control wells contain Opti-Mem only. […] Once supernatants are removed, the relative viability of adherent cells in the 96-well TC plate are determined using a CellTiter-Glo® luminescent cell viability assay (Promega).
For orientation: IC50 means the concentration that gives 50% inhibition. A lower IC50 goes with greater potency. For the compound `CC(O)c1ncc(CN(C)C(=O)c2ccc(-c3cccs3)c(OC3CC3)c2)c2[nH]ncc12` (stereo not drawn) [Compound 083], the IC50 was < 10000 nM. In the case of `CCN(Cc1cnc(CO)c2cn[nH]c12)C(=O)c1ccc(-c2cccc(Cl)c2)c(OC2CC2)c1` [Compound 182] it was < 1000 nM. The value for `CCOc1cc(C(=O)N(C)[C@H](C)c2cnc(C)c3cn[nH]c23)ccc1-c1cccc(F)c1` [Compound 050] was < 1000 nM; that for `CCN(Cc1cnc(CO)c2cn[nH]c12)C(=O)c1cc(F)c(-c2cccc(Cl)c2)c(OC2CC2)c1` [Compound 092] was < 1000 nM. The value for `CC(O)c1ncc(CN(C)C(=O)c2cc(F)c(-c3cccc(Cl)c3)c(OC3CC3)c2)c2[nH]ncc12` (stereo not drawn) [Compound 115] was < 1000 nM; that for `CCN(Cc1cnc(C)c2cn[nH]c12)C(=O)c1cc(F)c(-c2cccc(Cl)c2)c(OC2CC2)c1` [Compound 032] was < 1000 nM. On to `CC(O)c1ncc(CN(C)C(=O)c2ccc(-c3ccc(Cl)s3)c(OC3CC3)c2)c2[nH]ncc12` (stereo not drawn) [Compound 168], for which the half-inhibitory concentration (IC50) is < 1000 nM. The value for `CCOc1cc(C(=O)N(C)Cc2c(F)c(O)cc3cn[nH]c23)ccc1-c1cccc(F)c1` [Compound 148] was < 1000 nM; that for `CCOc1cc(C(=O)N(C)Cc2cnc(CO)c3cn[nH]c23)cc(F)c1-c1cccs1` [Compound 106] was < 1000 nM. In the case of `CC(C)Oc1cc(C(=O)N(C)Cc2cnc(CO)c3cn[nH]c23)ccc1-c1cccc(Cl)c1` [Compound 143], the half-inhibitory concentration (IC50) is < 1000 nM. The value for `CCOc1cc(C(=O)N(C)Cc2cnc(C(O)C(F)(F)F)c3cn[nH]c23)ccc1-c1cccc(F)c1` (stereo not drawn) [Compound 171] was < 1000 nM; that for `Cc1ncc2cn[nH]c2c1CN(C)C(=O)c1cc(F)c(-c2cccc(F)c2)c(OC2CC2)c1` [Compound 062] was < 1000 nM; that for `CCOc1cc(C(=O)N(CC)Cc2cnc(CO)c3cn[nH]c23)ccc1-c1cccc(C#N)c1` [Compound 103] was < 10000 nM. On to `CCOc1cc(C(=O)N(C)[C@H](C)c2c(C)ncc3cn[nH]c23)ccc1-c1cccc(F)c1` [Compound 044], for which the half-maximal inhibitory concentration (IC50) is < 50000 nM. As to `Cc1nc(CO)c2cn[nH]c2c1CN(C)C(=O)c1cc(F)c(-c2cccc(Cl)c2)c(OC2CC2)c1` [Compound 040], the half-inhibitory concentration (IC50) was < 1000 nM.

As for `CN(Cc1cc(O)cc2cn[nH]c12)C(=O)c1cc(F)c(-c2cccc(C#N)c2)c(OC2CC2)c1` [Compound 111], the IC50 was < 1000 nM. For `CCOc1cc(C(=O)N(C)Cc2cnc(C)c3cn[nH]c23)ccc1-c1cc(C#N)cs1` [Compound 153], the IC50 is < 10000 nM. In the case of `CCOc1cc(C(=O)N(C)Cc2cnc(CF)c3cn[nH]c23)ccc1C#CC1CC1` [Compound 001] it was < 1000 nM; in that of `CCOc1cc(C(=O)N(C)Cc2cnc(C(C)O)c3cn[nH]c23)cc(F)c1-c1cc(F)cc(Cl)c1` (stereo not drawn) [Compound 096], < 1000 nM; in that of `CCOc1cc(C(=O)N(C)Cc2cnc(C)c3cn[nH]c23)ccc1-c1cc(F)cs1` [Compound 140], < 10000 nM. `CCN(Cc1cnc(CO)c2cn[nH]c12)C(=O)c1cc(F)c(-c2cccc(C#N)c2)c(OC2CC2)c1` [Compound 087]: the IC50 was < 1000 nM. As for `CC(O)c1ncc(CN(C)C(=O)c2ccc(-c3cccc(Cl)c3)c(OC3CC3)c2)c2[nH]ncc12` (stereo not drawn) [Compound 101], the IC50 was < 1000 nM.

For the compound `CN(Cc1cnc(CO)c2cn[nH]c12)C(=O)c1ccc(-c2cccc(F)c2)c(OC2COC2)c1` [Compound 151], the IC50 was < 10000 nM.

Regarding `CCCOc1cc(C(=O)N(C)Cc2cnc(CO)c3cn[nH]c23)ccc1-c1cccc(F)c1` [Compound 147], the IC50 is < 1000 nM.

As for `CCCOc1cc(C(=O)N(C)Cc2cnc(CO)c3cn[nH]c23)cc(F)c1-c1cc(F)cc(F)c1` [Compound 136], the IC50 is < 1000 nM. In the case of `CCOc1cc(C(=O)N(C)Cc2cnc(C(C)O)c3cn[nH]c23)cc(F)c1-c1cccc(C#N)c1` (stereo not drawn) [Compound 090] it was < 10000 nM. The value for `CCOc1nc(C(=O)N(C)[C@H](C)c2cnc(C)c3cn[nH]c23)ccc1-c1cccc(F)c1` [Compound 124] was < 50000 nM; that for `CCOc1cc(C(=O)N(C)[C@@H](C)c2cnc(C)c3cn[nH]c23)ccc1-c1cccc(F)c1` [Compound 049] was < 50000 nM. The value for `CCOc1cc(C(=O)N(C)Cc2cnc(CO)c3cn[nH]c23)cc(F)c1-c1cc(C#N)cs1` [Compound 073] was < 1000 nM; that for `CCOc1cc(C(=O)N(C)Cc2cc(O)cc3cn[nH]c23)cc(F)c1-c1cccc(Cl)c1` [Compound 178] was < 1000 nM; that for `CN(Cc1c(CO)ncc2cn[nH]c12)C(=O)c1ccc(-c2cccc(Cl)c2)c(OC2CC2)c1` [Compound 144] was < 1000 nM.

Turning to `CCOc1cc(C(=O)N(C)Cc2cnc(C(C)O)c3cn[nH]c23)cc(F)c1-c1cccs1` (stereo not drawn) [Compound 154], the IC50 is < 1000 nM. On to `CN(Cc1cnc(CO)c2cn[nH]c12)C(=O)c1ccc(-c2cc(F)cc(F)c2)c(OC2COC2)c1` [Compound 155], for which the IC50 is < 1000 nM. `CCOc1cc(C(=O)N(C)[C@@H](C)c2cnc(CO)c3cn[nH]c23)ccc1-c1cccc(F)c1` [Compound 160]: the half-inhibitory concentration (IC50) is < 1000 nM. In the case of `CCOc1cc(C(=O)N(C)Cc2c(C)nc(C)c3cn[nH]c23)ccc1-c1cccc(F)c1` [Compound 053] it was < 1000 nM. In the case of `CCOc1nc(C(=O)N(C)[C@@H](C)c2ccc(CF)c3cn[nH]c23)ccc1-c1cccc(F)c1` [Compound 074], the IC50 was < 50000 nM. On to `CCN(Cc1cnc(C(C)O)c2cn[nH]c12)C(=O)c1ccc(-c2cccc(F)c2)c(OC2CC2)c1` (stereo not drawn) [Compound 179], for which the half-inhibitory concentration (IC50) is < 1000 nM. Take `CCOc1cc(C(=O)N(C)[C@H](C)c2cccc3cn[nH]c23)ccc1-c1cccc(F)c1` [Compound 058]: the concentration for half-maximal inhibition (IC50) is < 50000 nM. As for `Cc1nc(CO)c2cn[nH]c2c1CN(C)C(=O)c1ccc(-c2cccc(Cl)c2)c(OC2CC2)c1` [Compound 041], the IC50 is < 1000 nM. In the case of `CCOc1cc(C(=O)N(C)Cc2cnc(C(C)O)c3cn[nH]c23)ccc1-c1cc(F)cc(F)c1` (stereo not drawn) [Compound 026] it was < 1000 nM; in that of `CCOc1cc(C(=O)N(C)Cc2c(COC)ncc3cn[nH]c23)ccc1-c1cccc(F)c1` [Compound 077], < 1000 nM; in that of `Cc1ncc(CNC(=O)c2cc(F)c(-c3cccc(Cl)c3)c(OC3CC3)c2)c2[nH]ncc12` [Compound 122], < 1000 nM.

As for `CCOc1cc(C(=O)N(C)Cc2cnc(C(C)O)c3cn[nH]c23)cc(Cl)c1-c1cccc(Cl)c1` (stereo not drawn) [Compound 166], the IC50 is < 1000 nM. In the case of `CCOc1cc(C(=O)N(C)Cc2cnc(CO)c3cn[nH]c23)ccc1-c1ccc(Cl)s1` [Compound 164] it was < 1000 nM; in that of `CCOc1cc(C(=O)N(C)Cc2cnc(C(C)O)c3cn[nH]c23)cc(F)c1-c1cccc(F)c1` (stereo not drawn) [Compound 118], < 1000 nM. In the case of `C[C@@H](c1cncc2cn[nH]c12)N(C)C(=O)c1ccc(-c2cccc(F)c2)c(OC2CC2)c1` [Compound 052], the concentration for half-maximal inhibition (IC50) is < 1000 nM.

In the case of `CCOc1cc(C(=O)N(C)Cc2c(C3CC3)ncc3cn[nH]c23)ccc1-c1cccc(F)c1` [Compound 011], the half-inhibitory concentration (IC50) was < 1000 nM.

For the compound `CCOc1cc(C(=O)N(CC)Cc2cnc(CO)c3cn[nH]c23)ccc1-c1cccc(F)c1` [Compound 097], the 50% inhibitory concentration (IC50) was < 1000 nM. With `CN(Cc1c(CO)ncc2cn[nH]c12)C(=O)c1cc(F)c(-c2cccc(F)c2)c(OC2CC2)c1` [Compound 139], the IC50 is < 1000 nM. The value for `Cc1ncc([C@H](C)N(C)C(=O)c2cc(F)c(-c3cccc(F)c3)c(OC3CC3)c2)c2[nH]ncc12` [Compound 035] was < 1000 nM; that for `CCOc1cc(C(=O)N(CC)Cc2cnc(C(C)O)c3cn[nH]c23)ccc1-c1cccc(Cl)c1` (stereo not drawn) [Compound 176] was < 1000 nM; that for `CN(Cc1c(CO)ncc2cn[nH]c12)C(=O)c1cc(F)c(-c2cccc(Cl)c2)c(OC2CC2)c1` [Compound 145] was < 1000 nM. The value for `CCOc1cc(C(=O)N(C)Cc2cnc(C(C)O)c3cn[nH]c23)cc(F)c1-c1cc(C#N)cs1` (stereo not drawn) [Compound 072] was < 10000 nM; that for `CCN(Cc1cnc(CO)c2cn[nH]c12)C(=O)c1ccc(-c2cccc(C#N)c2)c(OC2CC2)c1` [Compound 082] was < 50000 nM. In the case of `CN(Cc1cc(O)cc2cn[nH]c12)C(=O)c1cc(F)c(-c2cccc(F)c2)c(OC2CC2)c1` [Compound 099] it was < 1000 nM; in that of `CCOc1cc(C(=O)N(C)Cc2cc(C(=O)OC)cc3cn[nH]c23)ccc1-c1cccc(F)c1` [Compound 008], < 10000 nM; in that of `CCOc1cc(C(=O)N(C)Cc2cnc(C)c3cn[nH]c23)cc(CF)c1-c1cccc(F)c1` [Compound 125], < 10000 nM. For `CCOc1cc(C(=O)N(CC)Cc2cnc(CO)c3cn[nH]c23)ccc1-c1cccc(Cl)c1` [Compound 177], the IC50 was < 1000 nM.

On to `CN(Cc1cnc(CF)c2cn[nH]c12)C(=O)c1cc(F)c(-c2cc(F)cs2)c(OC2CC2)c1` [Compound 181], for which the IC50 is < 1000 nM. In the case of `CC(O)c1ncc(CN(C)C(=O)c2ccc(-c3cccc(C#N)c3)c(OC3CC3)c2)c2[nH]ncc12` (stereo not drawn) [Compound 080] it was < 50000 nM.
